Assays:
Type in all cases: in vivo
[1] = system: windgrass (Apera spica-venti); assay: Test B postemergence plant response; details: Postemergence
Summary of the method: (§1)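 Plants grown in peat/vermiculite medium were sprayed postemergence at 2–18 cm height (1- to 4-leaf stage). After 13–15 days in the greenhouse, response was rated visually against untreated controls on a 0–100 scale (0 no effect, 100 complete control).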

[2] = system: winter barley (Hordeum vulgare); assay: Test B postemergence plant response; details: Postemergence
Summary of the method: as §1

[3] = system: chickweed (Stellaria media); assay: Test B postemergence plant response; details: Postemergence
Summary of the method: as §1

[4] = system: canarygrass (Phalaris minor); assay: Test B postemergence plant response; details: Postemergence
Summary of the method: as §1

[5] = system: nightshade (eastern black nightshade, Solanum ptycanthum); assay: Test B pre-/postemergence plant response; details: Preemergence
Summary of the method: (§2)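 Visual ratings on a 0–100 scale (100 = complete control) were made versus untreated controls 13–15 days after treatment in a greenhouse. Compounds in surfactant-containing non-phytotoxic solvent were applied preemergence to seeds in loam–sand blend or postemergence to 1- to 4-leaf plants (2–18 cm).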

[6] = system: Italian ryegrass (Lolium multiflorum); assay: Test B pre-/postemergence plant response
Summary of the method: as §2

[7] = system: giant foxtail (Setaria faberii); assay: Test B pre-/postemergence plant response
Summary of the method: as §2

[8] = system: galium (catchweed bedstraw, Galium aparine); assay: Test B pre-/postemergence plant response; details: Preemergence
Summary of the method: as §2

[9] = system: ragweed (common ragweed, Ambrosia elatior); assay: Test B pre-/postemergence plant response
Summary of the method: as §2

[10] = system: sunflower (common oilseed sunflower, Helianthus annuus); assay: Test B pre-/postemergence plant response; details: Preemergence
Summary of the method: as §2

rice (Oryza sativa) = assay: Test B flooded paddy test; details: for Plant response rating, Rice: Flood (flooded paddy test), 13 to 15 days
Summary of the method: (§3)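 2-leaf seedlings; pots flooded 3 cm over soil at treatment; cpd dosed into floodwater, depth kept constant. Greenhouse 13–15 d. Visual rating vs untreated controls, 0 = no effect, 100 = complete control.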

[11] = system: ducksalad (Heteranthera limosa); assay: Test B flooded paddy test; details: for Plant response rating, Ducksalad: Flood (flooded paddy test), 13 to 15 days
Summary of the method: as §3

[12] = system: umbrella sedge (Cyperus difformis); assay: Test B flooded paddy test; details: for Plant response rating, Sedge, Umbrella: Flood (flooded paddy test), 13 to 15 days
Summary of the method: as §3

[13] = system: barnyardgrass (Echinochloa crus-galli); assay: Test B flooded paddy test; details: for Plant response rating, Barnyardgrass: Flood (flooded paddy test), 13 to 15 days
Summary of the method: as §3

[14] = 31 g ai/ha, 0 to 100 scale (0 no effect, 100 complete control)
[15] = 125 g ai/ha, scale 0 (no effect) to 100 (complete control), 13 to 15 days
[16] = 250 g ai/ha, scale 0 to 100 (0 no effect, 100 complete control), 13 to 15 days
[17] = 62 g ai/ha, scale 0 to 100 (0 no effect, 100 complete control)
[18] = 31 g ai/ha, scale 0 to 100 (0 no effect, 100 complete control)
[19] = 62 g ai/ha, scale 0 to 100, 0 no effect, 100 complete control
[20] = 125 g ai/ha, scale 0 to 100, 0 no effect, 100 complete control
[21] = Postemergence, 31 g ai/ha, 0 to 100 scale (0 no effect, 100 complete control)
[22] = Postemergence, 125 g ai/ha, scale 0 (no effect) to 100 (complete control), 13 to 15 days
[23] = Postemergence, 250 g ai/ha, scale 0 to 100 (0 no effect, 100 complete control), 13 to 15 days
[24] = Postemergence, 62 g ai/ha, scale 0 to 100 (0 no effect, 100 complete control)
[25] = Preemergence, 31 g ai/ha, scale 0 to 100 (0 no effect, 100 complete control)
[26] = Preemergence, 62 g ai/ha, scale 0 to 100, 0 no effect, 100 complete control
[27] = Preemergence, 125 g ai/ha, scale 0 to 100, 0 no effect, 100 complete control
[28] = Preemergence, 250 g ai/ha, 0 to 100 scale
[29] = 250 g ai/ha, flooded paddy test, visual rating on 0 to 100 scale (0 no effect, 100 complete control) after 13 to 15 days
[30] = 62 g ai/ha, scale of 0 to 100 where 0 is no effect and 100 is complete control
[31] = 125 g ai/ha, scale 0 to 100, 0 is no effect, 100 is complete control
[32] = Flood, 31 g ai/ha, scale 0 to 100 (0 no effect, 100 complete control)

SMILES: COCCCn1c(-c2cc(F)cc(F)c2)ncc(C(=O)C2=C(O)C3CCC(C3)C2=O)c1=O (centres unmarked) [Compound 244]
- Plant response rating, Windgrass [1, 14]: 50
- Plant response rating, Windgrass [1, 15]: 80
- Plant response rating, Windgrass [1, 16]: 95
- Plant response rating, Windgrass [1, 17]: 70
- Plant response rating, Barley [2, 14]: 50
- Plant response rating, Barley [2, 15]: 90
- Plant response rating, Barley [2, 16]: 98
- Plant response rating, Barley [2, 17]: 65
- Plant response rating, Chickweed [3, 14]: 80
- Plant response rating, Chickweed [3, 15]: 98
- Plant response rating, Chickweed [3, 16]: 100
- Plant response rating, Chickweed [3, 17]: 95
- Plant response rating, Canarygrass [4, 14]: 80
- Plant response rating, Canarygrass [4, 15]: 98
- Plant response rating, Canarygrass [4, 16]: 100
- Plant response rating, Canarygrass [4, 17]: 95
- Plant response rating, Nightshade [5, 18]: 98
- Plant response rating, Nightshade [5, 19]: 100
- Plant response rating, Nightshade [5, 20]: 100
- Nightshade plant response rating ([5]; 250 g ai/ha, 0 to 100 scale): 100
- Plant response rating, Ryegrass, Italian [6, 21]: 35
- Plant response rating, Ryegrass, Italian [6, 22]: 80
- Plant response rating, Ryegrass, Italian [6, 23]: 95
- Plant response rating, Ryegrass, Italian [6, 24]: 60
- Plant response rating, Ryegrass, Italian [6, 25]: 0
- Plant response rating, Ryegrass, Italian [6, 26]: 0
- Plant response rating, Ryegrass, Italian [6, 27]: 5
- Ryegrass, Italian plant response rating [6, 28]: 45
- Plant response rating, Foxtail, Giant [7, 21]: 95
- Plant response rating, Foxtail, Giant [7, 22]: 95
- Plant response rating, Foxtail, Giant [7, 23]: 100
- Plant response rating, Foxtail, Giant [7, 24]: 95
- Plant response rating, Foxtail, Giant [7, 25]: 60
- Plant response rating, Foxtail, Giant [7, 26]: 80
- Plant response rating, Foxtail, Giant [7, 27]: 100
- Foxtail, Giant plant response rating [7, 28]: 100
- Plant response rating, Galium [8, 18]: 55
- Plant response rating, Galium [8, 19]: 65
- Plant response rating, Galium [8, 20]: 98
- Galium plant response rating ([8]; 250 g ai/ha, 0 to 100 scale): 98
- Plant response rating, Ragweed [9, 21]: 98
- Plant response rating, Ragweed [9, 22]: 98
- Plant response rating, Ragweed [9, 23]: 100
- Plant response rating, Ragweed [9, 24]: 98
- Plant response rating, Ragweed [9, 25]: 70
- Plant response rating, Ragweed [9, 26]: 95
- Plant response rating, Ragweed [9, 27]: 100
- Ragweed plant response rating [9, 28]: 100
- Plant response rating, Sunflower [10, 18]: 80
- Plant response rating, Sunflower [10, 19]: 80
- Plant response rating, Sunflower [10, 20]: 85
- Sunflower plant response rating ([10]; 250 g ai/ha, 0 to 100 scale): 100
- Plant response rating, Flood, Rice (rice (Oryza sativa); [29]): 85
- Plant response rating, Rice (rice (Oryza sativa); [30]): 0
- Plant response rating, Rice (rice (Oryza sativa); [31]): 60
- Rice plant response rating (rice (Oryza sativa); [32]): 0
- Plant response rating, Flood, Ducksalad [11, 29]: 100
- Plant response rating, Ducksalad [11, 30]: 80
- Plant response rating, Ducksalad [11, 31]: 100
- Ducksalad plant response rating [11, 32]: 35
- Plant response rating, Flood, Sedge, Umbrella [12, 29]: 100
- Plant response rating, Sedge, Umbrella [12, 30]: 0
- Plant response rating, Sedge, Umbrella [12, 31]: 100
- Sedge, Umbrella plant response rating [12, 32]: 0
- Plant response rating, Flood, Barnyardgrass [13, 29]: 75
- Plant response rating, Barnyardgrass [13, 30]: 20
- Plant response rating, Barnyardgrass [13, 31]: 40
- Barnyardgrass plant response rating [13, 32]: 0
